Measurements from patent publication US12371453B2, “Polypeptide having antibacterial activity, composition for preventing or treating sepsis comprising same, and antibacterial composition” (priority 2019, dated 2025).
pKd: −log10 of the molar value. Converted amounts (≈) assume the structure as drawn. Square brackets hold non-standard residues; d marks the D form. Ends that are not written are not given here. Peptide text beside a SMILES is read from it.

How the values were obtained:
[1] = Calcein dye leakage from liposome mimicking gram-negative bacterial cell membrane; type: biochemical; settings: calcein-encapsulated liposome
Experimental: (§1) To study an action mechanism for FP12-NH2, FP13-NH2, allD FP12-NH2, and allD FP13-NH2 peptides, the disruption ability of the peptides against liposomes mimicking a bacterial cell membrane and a red blood cell membrane was measured.
(§2) EYPG is an abbreviation for egg yolk L-α-phosphatidyl-DL-glycerol, and EYPC is an abbreviation for egg yolk 1,2-diacyl-sn-glycero-3-phosphocholine. CH is an abbreviation for cholesterol. After dissolving the phospholipids composed according to the content of each component in chloroform, the chloroform was removed using a rotary evaporator, and lyophilization was performed overnight. Afterward, the dried lipid film was dissolved in a Tris-buffer solution, and calcein […]. After repeated freezing and thawing, the calcein-encapsulated liposome was manufactured using an extruder. Subsequently, after an excitation wavelength of a spectrofluorimeter (Shimadzu RF 5301 PC spectrofluorimeter, Japan) was set to 490 nm, and an emission wavelength was set to 520 nm, the peptide was administered to the liposome to measure relative dye leakage, provided that a 100% dye leakage was expressed as fluorescence intensity when 0.010% Triton-X100 was added.
(§3) The upper graphs of FIG. 3 show the % dye leakage for an EYPC/EYPG (7:3, w/w) liposome mimicking bacterial cells, encapsulating a fluorescent dye, calcein, by a peptide according to a peptide concentration. […] The lower graphs of FIG. 3 show the % dye leakage for an EYPC/CH (10:1, w/w) liposome, which is […] mimicking a human red blood, encapsulating a fluorescent dye, calcein, by a peptide according to a peptide concentration.

[2] = LPS binding affinity by Isothermal Titration Calorimeter (ITC); design: species or system E. coli K1; settings: for LPS binding affinity (in words): compared with FP1 (wild type, WT); for pKd: peptide binding to LPS, read-out: Kd (calculated by ITC)
Source text: FPT (ADK 44-54) is denoted by wild type (WT), and peptides in which a point mutation occurred at various sites in WT were manufactured (FP3, FP5, FP6, and FP9). To increase the interaction with LPS in a residue sequence of FP3, peptides were designed based on FP3- and LPS-binding models (FP12-NH2 and FP13-NH2), and peptides were designed by additionally introducing a non-natural amino acid and an amino acid isomer (allomeric D-type amino acid) (allD FP12-NH2, allD FP13-NH2, allD FP-13-9a, allD FP-13-9w, allD FP-13-9k, and allD FP13-NH2 (AcOH)). In addition, an N-terminus PEGylated peptide (PEG-alld FP13-NH2 (AcOH)) was additionally designed, synthesized, and provided by ANYGEN, Co. Ltd. The binding affinity between each of the provided peptides and lipopolysaccharide (LPS) was confirmed through measuring the binding affinity (Kd) using Isothermal Titration Calorimeter (ITC).
Specifically, a method of analyzing binding affinity (Kd) between a peptide and LPS is as follows.
Measurement was carried out using a Malvern MicroCal PEAQ-ITC cell instrument, and the following pretreatment was carried out to confirm interaction with LPS. The amount and morphology of a sample cell are 300 μL and coin-shaped, fixed-in-place, respectively; a syringe rotation rate was 1,200 rpm; and a temperature was 30° C., 35° C. or 25° C.
Before the experiment, LPS and the peptide were previously diluted with PBS, thereby preparing 2 mM LPS and 0.2 mM peptide. 300 μL of the peptide was added into cells in the ITC instrument, which had been washed, and 40 μL of LPS was put into a syringe. After measurement conditions for ITC (temperature, number of injections) were set, the syringe was inserted into the cell, and ITC measurement was started. When the measurement was completed, analysis is performed, and the Kd values of LPS and the peptide were calculated.

[3] = Calcein dye leakage from liposome mimicking human red blood cell membrane; type: biochemical; settings: calcein-encapsulated liposome
Experimental: as §1, §2, §3

ESBL (E. coli) = settings: ESBL
Experimental: (§4) The antibacterial activity was evaluated according to an antibacterial activity test method for measuring the minimum inhibitory concentration 50 (MIC50; the minimal concentration that kills 50% of bacteria).
(§5) More specifically, 100 μL of a medium was dispensed into each well of a 96-well plate, and in the first column, an antibiotic and a peptide in 200 μL of the medium were dispensed. 1/2 serial dilution was performed from columns 1 to 11 and five types of antibiotic-resistant bacteria (ESBL-resistant E. coli, carbapenem-resistant A. baumannii, carbapenem-resistant Klebsiella pneumoniae, carbapenem-resistant Pseudomonas aeruginosa, colistin-resistant Acinetobactor baumannii), which had been previously cultured, were diluted (OD600 nm value in dilution: approximately 0.0025) and dispensed into each well. The plate was incubated in a 37° C. incubator for 4 hours, and measured at OD600 nm.

CR-Klebsiella pneumoniae = settings: CR-
Experimental: as §4, §5

[4] = tested on: Colistin resistant AB (Acinetobactor baumannii)
Experimental: as §4, §5

[5] = Calcein dye leakage from liposome mimicking gram-positive bacterial cell membrane; type: biochemical; settings: calcein-encapsulated liposome
Experimental: To study the action mechanisms for FPT2-NH2, FPT3-NH2, allD FPT2-NH2, and allD FP13-NH2 peptides, the disruption ability of the peptides against a liposome mimicking a bacterial cell membrane was measured.

E. coli = type: cell-based
[6] = tested on: trypsin, protease K, and chymotrypsin; settings: read out by antibacterial activity
A. baumannii = type: cell-based
[7] = tested on: Carbapenem resistant (CR)-Acinetobactor baumannii; experiment: organism not typed
Experimental: as §4, §5

[8] = In vivo toxicity, survival rate (Example 9); design: species or system ICR mice; settings: mouse, ip, mice, intraperitoneal six times, survival for 72 hours
Experimental: To confirm the therapeutic and pharmaceutical effects of an acetate salt substitution of allD FP13-NH2, a septic animal model induced by intraperitoneally administering each of the Escherichia coli (standard strain and ESBL) strains or a normal mouse was treated with the peptide allD FP13-NH2 (AcOH). The antibiotic effect, the toxicity, and the inhibitory activity of […] cytokine IL-6 of the salt substitution with those of the same peptide at the end of trifluoroacetic acid (TFA) were compared.
Six-week-old female ICR mice (SPF mice, Samtako) with an average body weight of 25 g were used as experimental animals. The experimental animals were provided with sterile feed and water and bred with less than 10 mice per cage, and a day/night cycle was 12 hours.
To evaluate in vivo toxicity, the mice were divided into groups (n=5 or 6 per group) per experiment, and intraperitoneally treated six times with allD FP13-NH2 (TFA) and allD FP13-NH2 (AcOH) mixed with […]'S DEX solution (vehicle) at 0, 1, 2, 3, 4, or 5 hours, followed by observing a survival rate at intervals of 12 hours for 72 hours.

Compound | dye leakage, PC/PG (7:3, w/w) liposome mimicking a bacteria cell membrane [1] | LPS binding affinity (in words) [2] | pKd [2] | dye leakage, PC/CH liposome mimicking a red blood cell membrane [3] | MIC50, ESBL (E. coli) (ESBL (E. coli)) [µg/mL] | MIC50, CR-Klebsiella pneumoniae (CR-Klebsiella pneumoniae) [µg/mL] | MIC50, Colistin resistant AB [4] [µg/mL] | dye leakage, EYPG/EYPC (6:4, w/w) liposome mimicking gram-positive bacterial cell membrane [5] | MIC50 (E. coli) [µM] | MIC90 (E. coli) [µM] | resistance to the proteolytic enzyme [6] | MIC50 (S. aureus) [µM] | MIC90 (S. aureus) [µM] | MIC50 (A. baumannii) [µM] | MIC90 (A. baumannii) [µM] | MIC50, Carbapenem resistant (CR)-Acinetobactor baumannii [7] [µg/mL] | LD50 [8] [mg/kg]
CC(C)C[C@@H](NC(=O)[C@H](N)CCCNC(=N)N)C(=O)N[C@H](CCCNC(=N)N)C(=O)N[C@@H](C(=O)N[C@H](CCCCN)C(=O)N[C@H](CC(C)C)C(=O)N[C@H](CCCNC(=N)N)C(=O)N[C@H](CCCNC(=N)N)C(=O)N[C@H](Cc1ccc(O)cc1)C(=O)N[C@H](CC(C)C)C(=O)N[C@H](CCCNC(=N)N)C(N)=O)C(C)C [allD FP12-NH2] (H-[dR][dL][dR][dV][dK][dL][dR][dR][dY][dL][dR]-NH2; N-terminus assumed) | high dye leakage | strong LPS binding affinity | 4.58 | almost no dye leakage | <0.5 | <32 | <16 | high dye leakage | 2 (≈ 3.06 µg/mL) | 4 (≈ 6.11 µg/mL) | much improved resistance | 4 (≈ 6.11 µg/mL) | 8 (≈ 12.2 µg/mL) | 4 (≈ 6.11 µg/mL) | 8 (≈ 12.2 µg/mL) | <4 | –
CC(C)C[C@@H](NC(=O)[C@H](N)CCCCN)C(=O)N[C@H](CCCNC(=N)N)C(=O)N[C@@H](C(=O)N[C@H](CCCCN)C(=O)N[C@H](CC(C)C)C(=O)N[C@H](CCCNC(=N)N)C(=O)N[C@H](CCCNC(=N)N)C(=O)N[C@H](Cc1ccc(O)cc1)C(=O)N[C@H](CC(C)C)C(=O)N[C@H](CCCNC(=N)N)C(N)=O)C(C)C [allD FP13-NH2 (AcOH)] (H-[dK][dL][dR][dV][dK][dL][dR][dR][dY][dL][dR]-NH2; N-terminus assumed) | – | – | – | – | <1 | <32 | <16 | – | – | – | – | – | – | – | – | <1 | 80
KLRVKLRRYLR-NH2 [FP13-NH2] | high dye leakage | strong LPS binding affinity | 3.93 | almost no dye leakage | <1 | <16 | <32 | high dye leakage | – | – | – | – | – | – | – | <8 | –
RLRVKLRRYLR-NH2 [FP12-NH2] | high dye leakage | strong LPS binding affinity | 6.62 | almost no dye leakage | <0.5 | <8 | <16 | high dye leakage | – | – | – | – | – | – | – | <4 | –
